One substance from patent US7553821B2, “Methods for selectively modulating survivin apoptosis pathways” (Yale University, priority 2000, dated 2009) can be followed below.

This assay concerns HeLa cells. In words: DNA content by propidium iodide staining and flow cytometry in transfected HeLa cells. The assay is classed as cell-based. To be noted: gated GFP-expressing cells, 48 h after transfection. As for the experimental part: HeLa cells were transfected with GFP-survivin(T34A) in the presence or in the absence of 20 μM of the caspase inhibitor, Z-VAD-fmk. Gated GFP-expressing cells were analyzed 48 h after transfection for DNA content by propidium iodide staining and flow cytometry. The percentages of apoptotic cells with sub-G1 (hypodiploid) […] DNA content are indicated. Apoptotic HeLa cells in GFP-vector transfectants were 8%. Data are representative of one experiment out of at least three independent determinations.
Transfection experiments. For transient transfection, HeLa cells in C-6 tissue culture plates (Costar, Cambridge, Mass.) at ˜60-70% confluency, were incubated in 1 ml of serum-free OptiMEM medium (Life Technologies, Gaithersburg, Md.) for 20 min, and transfected with 2.5 μg of the various plasmid cDNAs plus 9 μl Lipofectamine (Life Technologies). After a 5 h incubation at 37° C., the mixture was aspirated and substituted with complete growth medium for 48-72 h. To generate stable YUSAC-2 transfectants, a survivin(T34A) cDNA was inserted into the HindIII-SpeI sites of the pTet-splice vector (Dr. D. Schatz, Yale University School of Medicine), downstream of the regulatory sequences of the Tet-resistance operon (TetO). […] Gated GFP-expressing cells were analyzed for DNA content by flow cytometry on a FACSort (Becton Dickinson, San Jose, Calif.) using a Cell Quest software. […]

In the case of “survivin(T34A): dominant-negative, non-phosphorylatable survivin mutant with Thr34→Ala substitution, expressed from transfected cDNA (also HA- or GFP-tagged)”, the “hypodiploid (sub-G1) DNA content” value is listed as “resulted in the appearance of HeLa cells with hypodiploid (sub-G1) DNA content”.
